Where a name gives a salt, the structure may show the parent alone.
What was measured:
A549 cells = test: Inhibition of PGE2 production in A549 cell (IL-1β stimulated); assay type: cell-based, human; details: Homo sapiens, A549, 24 h, IL-1β 5 ng/well, PGE2 in culture medium
Procedure, shortened: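 A549 cells preincubated 60 min with compound in RPMI/3% FBS (final DMSO 0.10), then stimulated with IL-1β (5 ng/well) for 24 h at 37 °C. PGE2 measured by HTRF and PGF2α by EIA in medium; IC50 from inhibition relative to stimulated minus unstimulated production.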

human mPGES-1 = human mPGES-1 (Homo sapiens (Human), UniProt O14684); test: mPGES-1 inhibiting activity (microsome fractions, PGE2 by HTRF); assay type: biochemical; details: microsomes from CHO-K1 cells transfected with human mPGES-1; PGH2 1 μM, 4° C., 60 seconds; read-out: mPGES-1 Inhibition IC50
Chain of human mPGES-1 (O14684 whole entry): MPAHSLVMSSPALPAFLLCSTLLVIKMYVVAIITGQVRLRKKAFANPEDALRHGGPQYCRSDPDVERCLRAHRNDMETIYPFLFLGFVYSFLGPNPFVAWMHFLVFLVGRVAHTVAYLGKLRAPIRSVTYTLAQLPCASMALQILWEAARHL
Procedure, shortened: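 PGE2 formation read by HTRF after 60 s at 4 °C with 1 μM PGH2 substrate, following 20 min compound preincubation (1% DMSO) with human mPGES-1 microsomes from transfected CHO-K1 cells. Buffer: potassium phosphate, reduced glutathione, pH 7.4; IC50 from activity relative to enzyme-free blank.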

| SMILES | IC50 (A549 cells) | IC50 (human mPGES-1) |
| --- | --- | --- |
| COCc1nc2c(C(=O)Nc3cccc(Cl)c3C)cc(NC(=O)c3cc(CCc4ccccc4)ccc3Cl)cc2[nH]1 [Example 123, N-(3-Chloro-2-methylphenyl)-6-({[2-chloro-5-(2-phenylethyl)phenyl]carbonyl}amino)-2-(methoxymethyl)-1H-benzimidazole-4-carboxamide hydrochloride] | 99.8 nM | 8.7 nM |
| COCc1nc2c(C(=O)Nc3cccc(Cl)c3C)cc(NC(=O)c3c(F)ccc(F)c3Cl)cc2[nH]1 [Example 101, 6-{[(2-Chloro-3,6-difluorophenyl)carbonyl]amino}-N-(3-chloro-2-methylphenyl)-2-(methoxymethyl)-1H-benzimidazole-4-carboxamide hydrochloride] | 118 nM | 77.8 nM |
| Cc1ccc(NC(=O)c2cc(NC(=O)c3c(Cl)cccc3Cl)cc3[nH]c(N(C)C)nc23)cc1Cl [Example 206, N-(3-Chloro-4-methylphenyl)-6-{[(2,6-dichlorophenyl)carbonyl]amino}-2-(dimethylamino)-1H-benzimidazole-4-carboxamide hydrochloride] | 74.5 nM | 3.2 nM |
| Cc1c(Cl)cccc1NC(=O)c1cc(NC(=O)c2ccccc2C(F)(F)F)cc2[nH]c(NC[C@@H]3CCCO3)nc12 [Example 168, N-(3-Chloro-2-methylphenyl)-2-{[(2S)-tetrahydrofuran-2-ylmethyl]amino}-6-({[2-(trifluoromethyl)phenyl]carbonyl}amino)-1H-benzimidazole-4-carboxamide hydrochloride] | 23.9 nM | 3.2 nM |
| Cc1c(Cl)cccc1NC(=O)c1cc(NC(=O)c2c(F)cccc2Cl)cc2[nH]c(NCC(C)(C)CO)nc12 [Example 200, 6-{[(2-Chloro-6-fluorophenyl)carbonyl]amino}-N-(3-chloro-2-methylphenyl)-2-[(3-hydroxy-2,2-dimethylpropyl)amino]-1H-benzimidazole-4-carboxamide hydrochloride] | 108 nM | 4.6 nM |
| COCc1nc2c(C(=O)Nc3c(C)cccc3Cl)cc(NC(=O)c3ccccc3C(F)(F)F)cc2[nH]1 [Example 43, N-(2-Chloro-6-methylphenyl)-2-(methoxymethyl)-6-({[2-(trifluoromethyl)phenyl]carbonyl}amino)-1H-benzimidazole-4-carboxamide hydrochloride] | 438 nM | 70.7 nM |
| Cc1c(Cl)cccc1NC(=O)c1cc(NC(=O)c2ccccc2C(F)(F)F)cc2[nH]c(N[C@@H](CO)C(C)C)nc12 [Example 171, N-(3-Chloro-2-methylphenyl)-2-{[(2R)-1-hydroxy-3-methylbutan-2-yl]amino}-6-({[2-(trifluoromethyl)phenyl]carbonyl}amino-1H-benzimidazole-4-carboxamide hydrochloride] | 97.8 nM | 4.7 nM |
| Cc1c(Cl)cccc1NC(=O)c1cc(NC(=O)c2ccccc2C(F)(F)F)cc2[nH]cnc12 [Example 3, N-(3-Chloro-2-methylphenyl)-6-({[2-(trifluoromethyl)phenyl]carbonyl}mino)-1H-benzimidazole-4-carboxamide] | 24.6 nM | 1.5 nM |
| Cc1c(Cl)cccc1NC(=O)c1cc(NC(=O)c2cc(Cl)ccc2Cl)cc2[nH]c(C3CCCC3)nc12 [Example 125, N-(3-Chloro-2-methylphenyl)-2-cyclopentyl-6-{[(2,5-dichlorophenyl)carbonyl]amino}-1H-benzimidazole-4-carboxamide hydrochloride] | 56.9 nM | 25.6 nM |
| COCc1nc2c(C(=O)Nc3cccc(Cl)c3C)cc(NC(=O)c3c(Cl)cccc3Cl)cc2[nH]1 [Example 98, N-(3-Chloro-2-methylphenyl)-6-{[(2,6-dichlorophenyl)carbonyl]amino}-2-(methoxymethyl)-1H-benzimidazole-4-carboxamide hydrochloride] | 11.9 nM | 6 nM |
| CCCCOc1ccc(Cl)c(C(=O)Nc2cc(C(=O)Nc3cccc(Cl)c3C)c3nc(COC)[nH]c3c2)c1 [Example 247, 6-{[(5-Butoxy-2-chlorophenyl)carbonyl]amino}-N-(3-chloro-2-methylphenyl)-2-(methoxymethyl)-1H-benzimidazole-4-carboxamide hydrochloride] | 55 nM | 68.4 nM |
| Cc1c(Cl)cccc1NC(=O)c1cc(NC(=O)c2ccccc2C(F)(F)F)cc2[nH]c(C(C)(C)CCl)nc12 [Example 57, N-(3-Chloro-2-methylphenyl)-2-(1-chloro-2-methylpropan-2-yl)-6-({[2-(trifluoromethyl)phenyl]carbonyl}amino)-1H-benzimidazole-4-carboxamide] | 16.8 nM | 0.5 nM |
| COCc1nc2c(C(=O)Nc3cccc(Cl)c3C)cc(NC(=O)c3cc(OCCOC(C)C)ccc3Cl)cc2[nH]1 [Example 114, N-(3-Chloro-2-methylphenyl)-6-[({2-chloro-5-[2-(propan-2-yloxy)ethoxy]phenyl}carbonyl)amino]-2-(methoxymethyl)-1H-benzimidazole-4-carboxamide hydrochloride] | 8.8 nM | 3.5 nM |
| Cc1c(Cl)cccc1NC(=O)c1cc(NC(=O)c2cc(Cl)ccc2Cl)cc2[nH]c(NCCOC(C)C)nc12 [Example 193, N-(3-Chloro-2-methylphenyl)-6-{[(2,5-dichlorophenyl)carbonyl]amino}-2-{[2-(propan-2-yloxy)ethyl]amino}-1H-benzimidazole-4-carboxamide hydrochloride] | 18.9 nM | 0.4 nM |
| Cc1nc2c(C(=O)Nc3cccc(Cl)c3C)cc(NC(=O)c3ccccc3C(F)(F)F)cc2o1 [Example 52, N-(3-Chloro-2-methylphenyl)-2-methyl-6-({[2-(trifluoromethyl)phenyl]carbonyl}amino)-1,3-benzoxazole-4-carboxamide] | 281 nM | 40.2 nM |
| COCc1nc2c(C(=O)Nc3cccc(Cl)c3C)cc(NC(=O)c3cc(F)ccc3C(F)(F)F)cc2[nH]1 [Example 112, N-(3-Chloro-2-methylphenyl)-6-({[5-fluoro-2-(trifluoromethyl)phenyl]carbonyl}amino)-2-(methoxymethyl)-1H-benzimidazole-4-carboxamide hydrochloride] | 187 nM | 2.6 nM |
| COCc1nc2c(C(=O)Nc3cccc(Cl)c3C)cc(NC(=O)c3ccccc3S(C)(=O)=O)cc2[nH]1 [Example 212, N-(3-Chloro-2-methylphenyl)-2-(methoxymethyl)-6-({[2-(methylsulfonyl)phenyl]carbonyl}amino)-1H-benzimidazole-4-carboxamide] | 305 nM | 42.3 nM |
| Cc1c(Cl)cccc1NC(=O)c1cc(NC(=O)c2ccccc2C(F)(F)F)cc2[nH]c(NC3CCCC3)nc12 [Example 141, N-(3-Chloro-2-methylphenyl)-2-(cyclopentylamino)-6-({[2-(trifluoromethyl)phenyl]carbonyl}amino)-1H-benzimidazole-4-carboxamide hydrochloride] | 36.5 nM | 0.4 nM |
| Cc1c(Cl)cccc1NC(=O)c1cc(NC(=O)c2ccccc2C(F)(F)F)cc2[nH]c(CC(=O)N3CCCC3)nc12 [Example 132, N-(3-Chloro-2-methylphenyl)-2-[2-oxo-2-(pyrrolidin-1-yl)ethyl]-6-({[2-(trifluoromethyl)phenyl]carbonyl}amino)-1H-benzimidazole-4-carboxamide hydrochloride] | 590 nM | 2.2 nM |
| Cc1c(Cl)cccc1NC(=O)c1cc(NC(=O)c2ccccc2C(F)(F)F)cc2[nH]c(NCCN(C)C)nc12 [Example 147, N-(3-Chloro-2-methylphenyl)-2-{[2-(dimethylamino)ethyl]amino}-6-({[2-(trifluoromethyl)phenyl]carbonyl}amino)-1H-benzimidazole-4-carboxamide hydrochloride] | 186 nM | 15.8 nM |
| Cc1c(Cl)cccc1NC(=O)c1cc(NC(=O)c2cc(Cl)ccc2Cl)cc2[nH]c(NCC(C)(C)O)nc12 [Example 191, N-(3-Chloro-2-methylphenyl)-6-{[(2,5-dichlorophenyl)carbonyl]amino}-2-[(2-hydroxy-2-methylpropyl)amino]-1H-benzimidazole-4-carboxamide hydrochloride] | 49.5 nM | 3.9 nM |
| Cc1c(Cl)cccc1NC(=O)c1cc(NC(=O)c2ccccc2C(F)(F)F)cc2c1ncn2C [Example 46, N-(3-Chloro-2-methylphenyl)-1-methyl-6-({[2-(trifluoromethyl)phenyl]carbonyl}amino)-1H-benzimidazole-4-carboxamide] | 231 nM | 26 nM |
| CCOc1nc2c(C(=O)NCc3ccccc3C(F)(F)F)cc(NC(=O)c3ccccc3C(F)(F)F)cc2[nH]1 [Example 56, 2-Ethoxy-N-[2-(trifluoromethyl)benzyl]-6-({[2-(trifluoromethyl)phenyl]carbonyl}amino)-1H-benzimidazole-4-carboxamide] | 85 nM | 7.5 nM |
| COC(C)(C)CNc1nc2c(C(=O)Nc3cccc(Cl)c3C)cc(NC(=O)c3cc(Cl)ccc3Cl)cc2[nH]1 [Example 192, N-(3-Chloro-2-methylphenyl)-6-{[(2,5-dichlorophenyl)carbonyl]amino}-2-[(2-methoxy-2-methylpropyl)amino]-1H-benzimidazole-4-carboxamide hydrochloride] | 18.1 nM | 9.9 nM |
| Cc1c(Cl)cccc1NC(=O)c1cc(NC(=O)c2ccccc2C(F)(F)F)cc2[nH]c(N3CCCCC3)nc12 [Example 142, N-(3-Chloro-2-methylphenyl)-2-(piperidin-1-yl)-6-({[2-(trifluoromethyl)phenyl]carbonyl}amino)-1H-benzimidazole-4-carboxamide hydrochloride] | 82.7 nM | 0.4 nM |

Source: US9216968B2, “Heterocyclic derivative and pharmaceutical drug” (NIPPON SHINYAKU CO., LTD., priority 2011, dated 2015)
